In ChEMBL document CHEMBL3045958, “The design and synthesis of inhibitors of adenosine 5'-monophosphate deaminase” (Bioorg Med Chem Lett, 1999):
Calls of active or inactive are those of the source. The calls are words filed in the database; no cut-off is given here.

Legend:
[1] = Inhibition of adenylate deaminase
[2] = target: T1, AMP deaminase 1 (Oryctolagus cuniculus, UniProt P81072); test: Inhibition of Oryctolagus cuniculus (rabbit) muscle adenylate deaminase; parameters: species or system Muscle tissue
T1 sequence (P81072 whole entry): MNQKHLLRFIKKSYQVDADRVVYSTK

[3] = tested on: Pisum sativum; test: Increase in ATP levels in Pisum sativum (pea) seedlings at 100 uM measured per gram of frozen weight after 24 hr by luciferase based assay (reference value: 213 to 226 nmol/g of frozen weight); type: functional, Lathyrus oleraceus
[4] = target: T2, Adenosine deaminase (Bos taurus, UniProt P56658); test: Inhibition of Bos taurus (calf) […]
T2 sequence (P56658 whole entry): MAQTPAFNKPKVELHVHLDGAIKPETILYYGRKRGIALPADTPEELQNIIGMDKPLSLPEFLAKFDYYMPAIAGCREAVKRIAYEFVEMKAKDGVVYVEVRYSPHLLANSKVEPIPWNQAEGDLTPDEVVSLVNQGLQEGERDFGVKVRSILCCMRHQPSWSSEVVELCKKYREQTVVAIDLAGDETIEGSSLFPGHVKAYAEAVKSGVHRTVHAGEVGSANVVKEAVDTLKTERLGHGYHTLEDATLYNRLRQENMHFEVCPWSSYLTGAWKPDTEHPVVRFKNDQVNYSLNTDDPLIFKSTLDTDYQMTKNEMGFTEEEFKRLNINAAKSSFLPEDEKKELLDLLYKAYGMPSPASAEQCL

[5] = tested on: Pisum sativum; test: Increase in ATP levels in Pisum sativum (pea) seedlings at 100 uM measured per gram of frozen weight after 4 hr by luciferase based assay (reference value: 253 to 267 nmol/g of frozen weight); type: functional, Lathyrus oleraceus

For `O=P(O)(O)OC[C@H]1C[C@@H](n2cnc3cncnc32)[C@H](O)[C@@H]1O`, the inhibition [1] was “inactive”.

With `O=P(O)(O)OC[C@H]1O[C@@H](n2cnc3cncnc32)[C@H](O)[C@@H]1O` the Ki [2] was 6.5 µM.

For `O=P(O)(O)OC[C@H]1O[C@@H](c2n[nH]c3cncnc23)[C@H](O)[C@@H]1O`, the IC50 [2] was 0.07 µM.

In the case of `OC[C@H]1C[C@@H](n2cnc3cncnc32)[C@H](O)[C@@H]1O`, the inhibition [1] is reported as “inactive”.

With `OC[C@H]1O[C@@H](c2n[nH]c3cncnc23)[C@H](O)[C@@H]1O` [DEAMINOFORMYCIN] the inhibition [1] was “inactive”, the Activity [3] was 693 nmol and the IC50 [4] was 5 µM. It also gave an Activity [5] of 423 nmol.
